Data as given in patent US20250154134A1, “COMPOUND AS FAK INHIBITOR AND USE THEREOF” (WIGEN BIOMEDICINE TECHNOLOGY (SHANGHAI) CO., LTD., priority 2022, published 2025).

Columns and labels:
[1] = molecular target: FAK recombinant protein (Homo sapiens (Human), UniProt Q05397); experiment: Inhibitory activity against FAK enzyme (HTRF, TK substrate); format: biochemical
Protocol: A compound serially diluted with DMSO was mixed with a FAK recombinant protein. After the mixture was left to stand at room temperature for 10 min, a biotin-labeled TK substrate (TK) and ATP were added. […] The inhibition percentage and IC50 of the compound were calculated compared to the DMSO control group.

[2] = system: PC3 cells; experiment: PC3 cell proliferation, 2D activity assay (Cell Titer-Lumi, 72 h); format: cell-based, human; conditions: Homo sapiens, PC-3, read-out: 2D inhibitory activity against PC3 cells IC50
Protocol: (§1) 2D activity assay: 1200 PC3 cells were seeded in a 96-well plate. After overnight adherence culture, A compound serially diluted was added. […] The growth of the cells was evaluated, and the IC50 of the compound inhibiting cell growth was calculated. 3D activity assay: PC3 cells were seeded in a 96-well plate at 1200 cells/well, and 3D culture was performed. 14 days after a compound serially diluted was added, the growth of the cells was measured. The inhibition percentage and IC50 of the compound were calculated compared to the DMSO control group.

[3] = system: PC3 cells; experiment: PC3 cell proliferation, 3D activity assay (3D culture, 14 days); format: cell-based, human; conditions: Homo sapiens, PC-3, 336 h, read-out: 3D inhibitory activity against PC3 cells IC50
Protocol: as §1

FAK recombinant protein, sequence (Q05397 whole entry): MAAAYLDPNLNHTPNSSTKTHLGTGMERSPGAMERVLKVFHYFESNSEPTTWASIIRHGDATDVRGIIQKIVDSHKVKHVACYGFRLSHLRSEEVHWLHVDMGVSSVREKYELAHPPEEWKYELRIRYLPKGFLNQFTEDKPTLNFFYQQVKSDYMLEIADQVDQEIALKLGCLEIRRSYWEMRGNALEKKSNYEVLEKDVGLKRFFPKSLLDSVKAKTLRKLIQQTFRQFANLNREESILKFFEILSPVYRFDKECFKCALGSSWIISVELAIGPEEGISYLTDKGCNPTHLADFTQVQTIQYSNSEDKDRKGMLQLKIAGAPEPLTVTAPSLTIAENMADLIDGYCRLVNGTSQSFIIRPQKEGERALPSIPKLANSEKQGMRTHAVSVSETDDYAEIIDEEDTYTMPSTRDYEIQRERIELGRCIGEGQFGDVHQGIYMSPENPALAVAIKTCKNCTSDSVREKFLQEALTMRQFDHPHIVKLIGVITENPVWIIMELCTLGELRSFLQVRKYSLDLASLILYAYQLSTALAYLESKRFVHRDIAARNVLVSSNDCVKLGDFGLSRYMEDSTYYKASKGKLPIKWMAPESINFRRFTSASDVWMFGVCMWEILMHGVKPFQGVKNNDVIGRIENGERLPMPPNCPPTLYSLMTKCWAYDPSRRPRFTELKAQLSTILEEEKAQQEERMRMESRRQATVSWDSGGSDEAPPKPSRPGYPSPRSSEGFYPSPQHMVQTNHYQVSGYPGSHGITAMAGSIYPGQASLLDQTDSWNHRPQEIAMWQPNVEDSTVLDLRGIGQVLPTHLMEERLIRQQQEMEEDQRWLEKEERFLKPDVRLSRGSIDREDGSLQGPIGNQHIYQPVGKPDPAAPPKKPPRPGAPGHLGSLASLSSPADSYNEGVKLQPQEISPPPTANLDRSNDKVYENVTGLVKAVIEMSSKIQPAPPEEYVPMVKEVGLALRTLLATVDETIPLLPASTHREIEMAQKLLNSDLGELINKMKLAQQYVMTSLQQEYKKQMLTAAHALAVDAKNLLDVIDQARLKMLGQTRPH

Row | Compound | IC50 [1] | IC50 [2] | IC50 [3]
1 | CN1CCN(c2ccc(Nc3ncc(C(F)(F)F)c(Oc4cccc5c4C(=O)N(C)C54CC4)n3)nc2)CC1 [Compound 85] | < 20 nM | > 2000 nM | 5 to 50 nM
2 | COc1cc2c(cc1Nc1ncc(C(F)(F)F)c(Oc3cccc4c3C(=O)N(C)C43CC3)n1)CN(C)CC2 [Compound 86] | < 20 nM | > 2000 nM | 5 to 50 nM
3 | COc1cc2c(cc1Nc1ncc(C(F)(F)F)c(Oc3cccc4c3C(=O)N(C)C43CC3)n1)CN(C)C(=O)C2 [Compound 90] | < 20 nM | > 2000 nM | 5 to 50 nM
4 | Cc1c(Nc2ncc(C(F)(F)F)c(Oc3cccc4c3C(=O)N(C)C43CC3)n2)nn2c1CCC2 [Compound 93] | < 20 nM | > 2000 nM | 5 to 50 nM
5 | CN1C(=O)c2c(Oc3nc(Nc4cc5n(n4)CCOC5)ncc3C(F)(F)F)cccc2C12CC2 [Compound 94] | < 20 nM | > 2000 nM | < 5 nM
6 | CN1C(=O)c2c(Oc3nc(Nc4cnn5c4COCC5)ncc3C(F)(F)F)cccc2C12CC2 [Compound 95] | < 20 nM | > 2000 nM | 5 to 50 nM
7 | CN1CCn2nc(Nc3ncc(C(F)(F)F)c(Oc4cccc5c4C(=O)N(C)C54CC4)n3)cc2C1 [Compound 96] | < 20 nM | > 2000 nM | < 5 nM
8 | CN1CCC(n2ccc(Nc3ncc(C(F)(F)F)c(Oc4cccc5c4C(=O)N(C)C54CC4)n3)n2)CC1 [Compound 97] | < 20 nM | > 2000 nM | 5 to 50 nM
9 | Cc1cn(C2CCN(C)CC2)nc1Nc1ncc(C(F)(F)F)c(Oc2cccc3c2C(=O)N(C)C32CC2)n1 [Compound 98] | < 20 nM | > 2000 nM | 5 to 50 nM
10 | COc1cc(C(=O)NC2CCN(C)CC2)ccc1Nc1ncc(C)c(Oc2cccc3c2C(=O)N(C)C32CC2)n1 [Compound 115] | < 20 nM | > 2000 nM | > 50 nM
11 | COc1cc(C2CCN(C)CC2)c(F)cc1Nc1ncc(C(F)(F)F)c(Oc2cccc3c2C(=O)N(C)C32CC2)n1 [Compound 119, 4′-((2-((5-fluoro-2-methoxy-4-(1-methylpiperidin-4-yl)phenyl)amino)-5-(trifluoromethyl)pyrimidin-4-yl)oxy)-2′-methylspiro[cyclopropane-1,1′-isoindolin]-3′-one] | < 20 nM | > 2000 nM | < 5 nM
12 | COc1cc(N2CCN(C)CC2)c(F)cc1Nc1ncc(C(F)(F)F)c(Oc2cccc3c2C(=O)N(C)C32CC2)n1 [Compound 122] | < 20 nM | > 2000 nM | < 5 nM
13 | COCCN1CCN(c2cc(OC)c(Nc3ncc(C(F)(F)F)c(Oc4cccc5c4C(=O)N(C)C54CC4)n3)cc2F)CC1 [Compound 123] | < 20 nM | > 2000 nM | < 5 nM
14 | COc1cc(N2CCN(CC(=O)N(C)C)CC2)c(F)cc1Nc1ncc(C(F)(F)F)c(Oc2cccc3c2C(=O)N(C)C32CC2)n1 [Compound 124] | < 20 nM | > 2000 nM | < 5 nM
15 | COc1cc(N2CC3(CN(C)C3)C2)c(F)cc1Nc1ncc(C(F)(F)F)c(Oc2cccc3c2C(=O)N(C)C32CC2)n1 [Compound 125] | < 20 nM | > 2000 nM | < 5 nM
16 | COc1cc(N2CCC3(CC2)CN(C)C3)c(F)cc1Nc1ncc(C(F)(F)F)c(Oc2cccc3c2C(=O)N(C)C32CC2)n1 [Compound 126] | < 20 nM | > 2000 nM | < 5 nM
17 | COc1cc(N2CCC3(CCN(C)C3)C2)c(F)cc1Nc1ncc(C(F)(F)F)c(Oc2cccc3c2C(=O)N(C)C32CC2)n1 (stereo not drawn) [Compound 127] | < 20 nM | > 2000 nM | < 5 nM
18 | COc1cc(N2CCC(N(C)C)CC2)c(F)cc1Nc1ncc(C(F)(F)F)c(Oc2cccc3c2C(=O)N(C)C32CC2)n1 [Compound 128] | < 20 nM | > 2000 nM | < 5 nM
19 | COc1cc(N2CCN(C)CC2=O)c(F)cc1Nc1ncc(C(F)(F)F)c(Oc2cccc3c2C(=O)N(C)C32CC2)n1 [Compound 129] | < 20 nM | > 2000 nM | 5 to 50 nM
20 | COc1cc(N2CCN(C)CC2)ccc1Nc1ncc(C2CC2)c(Oc2cccc3c2C(=O)N(C)C32CC2)n1 [Compound 130, 4′-((5-cyclopropyl-2-((2-methoxy-4-(4-methylpiperazin-1-yl)phenyl)amino)pyrimidin-4-yl)oxy)-2′-methylspiro[cyclopropane-1,1′-isoindolin]-3′-one] | < 20 nM | > 2000 nM | 5 to 50 nM
21 | COc1cc(N2CC3(CCN(C)CC3)C2)ccc1Nc1ncc(C2CC2)c(Oc2cccc3c2C(=O)N(C)C32CC2)n1 [Compound 131, 4′-((5-cyclopropyl-2-((2-methoxy-4-(7-methyl-2,7-diazaspiro[3.5]nonan-2-yl)phenyl)amino)pyrimidin-4-yl)oxy)-2′-methylspiro[cyclopropane-1,1′-isoindolin]-3′-one] | < 20 nM | > 2000 nM | 5 to 50 nM

Other lines, results leading:

Row | IC50 [1] | IC50 [2] | IC50 [3] | Compound
22 | < 20 nM | > 2000 nM | 5 to 50 nM | COc1cc(C(=O)NC2CCN(C)CC2)ccc1Nc1ncc(C(F)(F)F)c(Cc2cccc3c2C(=O)N(C)C32CC2)n1 [Compound 99, 3-methoxy-4-((4-((2′-methyl-3′-oxospiro[cyclopropane-1,1′-isoindolin]-4′-yl)methyl)-5-(trifluoromethyl)pyrimidin-2-yl)amino)-N-(1-methylpiperidin-4-yl)benzamide]
23 | < 20 nM | > 2000 nM | 5 to 50 nM | COc1cc(C(=O)NC2CCN(C)CC2)c(F)cc1Nc1ncc(C(F)(F)F)c(Cc2cccc3c2C(=O)N(C)C32CC2)n1 [Compound 100, 2-fluoro-5-methoxy-4-((4-((2′-methyl-3′-oxospiro[cyclopropane-1,1′-isoindolin]-4′-yl)methyl)-5-(trifluoromethyl)pyrimidin-2-yl)amino)-N-(1-methylpiperidin-4-yl)benzamide]
24 | < 20 nM | > 2000 nM | 5 to 50 nM | COc1cc(C(=O)NC2CC3(CCN(C)CC3)C2)ccc1Nc1ncc(C(F)(F)F)c(Cc2cccc3c2C(=O)N(C)C32CC2)n1 [Compound 101, 3-methoxy-4-((4-((2′-methyl-3′-oxospiro[cyclopropane-1,1′-isoindolin]-4′-yl)methyl)-5-(trifluoromethyl)pyrimidin-2-yl)amino)-N-(7-methyl-7-azaspiro[3.5]nonan-2-yl)benzamide]
25 | < 20 nM | > 2000 nM | 5 to 50 nM | COc1cc(C(=O)NC2CC3(CCN(C)CC3)C2)c(F)cc1Nc1ncc(C(F)(F)F)c(Cc2cccc3c2C(=O)N(C)C32CC2)n1 [Compound 102]
26 | < 20 nM | > 2000 nM | 5 to 50 nM | COc1cc(C(=O)NC2CCC3(CC2)CN(C)C3)ccc1Nc1ncc(C(F)(F)F)c(Cc2cccc3c2C(=O)N(C)C32CC2)n1 [Compound 103]
27 | < 20 nM | > 2000 nM | 5 to 50 nM | COc1cc(C(=O)NC2CCC3(CCN(C)C3)C2)ccc1Nc1ncc(C(F)(F)F)c(Cc2cccc3c2C(=O)N(C)C32CC2)n1 (stereo not drawn) [Compound 104]
28 | < 20 nM | > 2000 nM | 5 to 50 nM | COc1cc(C(=O)NC2COC3(CCN(C)C3)C2)ccc1Nc1ncc(C(F)(F)F)c(Cc2cccc3c2C(=O)N(C)C32CC2)n1 (stereo not drawn) [Compound 105]
29 | < 20 nM | > 2000 nM | 5 to 50 nM | COc1cc(C(=O)NC2CCC3(CC2)CCN(C)C3)ccc1Nc1ncc(C(F)(F)F)c(Cc2cccc3c2C(=O)N(C)C32CC2)n1 (stereo not drawn) [Compound 106]
30 | < 20 nM | > 2000 nM | > 50 nM | COc1cc(C(=O)NC2CCC3(CC2)CCN(C)CC3)ccc1Nc1ncc(C(F)(F)F)c(Cc2cccc3c2C(=O)N(C)C32CC2)n1 [Compound 107]
31 | < 20 nM | > 2000 nM | 5 to 50 nM | COc1cc(C(=O)NC2CCC23CCN(C)CC3)ccc1Nc1ncc(C(F)(F)F)c(Cc2cccc3c2C(=O)N(C)C32CC2)n1 (stereo not drawn) [Compound 108]
32 | < 20 nM | > 2000 nM | 5 to 50 nM | COc1cc(C(=O)NC2CCC3(CC2)CCN3C)ccc1Nc1ncc(C(F)(F)F)c(Cc2cccc3c2C(=O)N(C)C32CC2)n1 (stereo not drawn) [Compound 109]
33 | < 20 nM | > 2000 nM | > 50 nM | COc1cc(C(=O)NC2CCN3CCN(C)C3C2)ccc1Nc1ncc(C(F)(F)F)c(Cc2cccc3c2C(=O)N(C)C32CC2)n1 (stereo not drawn) [Compound 110]
34 | < 20 nM | > 2000 nM | 5 to 50 nM | COc1cc(N2CCN(C)CC2)ccc1Nc1ncc(C(F)(F)F)c(Cc2cccc3c2C(=O)N(C)C32CC2)n1 [Compound 111]
35 | < 20 nM | > 2000 nM | 5 to 50 nM | COc1cc(N2CCOCC2)ccc1Nc1ncc(C(F)(F)F)c(Cc2cccc3c2C(=O)N(C)C32CC2)n1 [Compound 112]
36 | < 20 nM | > 2000 nM | 5 to 50 nM | COc1cc(N2CCC(N3CCN(C)CC3)CC2)ccc1Nc1ncc(C(F)(F)F)c(Cc2cccc3c2C(=O)N(C)C32CC2)n1 [Compound 113]
37 | < 20 nM | > 2000 nM | 5 to 50 nM | COc1cc(C(=O)NC2CCN(C)CC2)ccc1Nc1ncc(Br)c(Oc2cccc3c2C(=O)N(C)C32CC2)n1 [Compound 116]
